Measured values: patent publication US8524703B2, “Bridgehead amine ring-fused indoles and indolines” (AbbVie Inc., priority 2009, dated 2013)

Tested on: SK-N-SH human neuroblastoma cells
Assay: Serum Deprivation/JC-1 Mitochondrial Membrane Potential (MMP) Assay
Type: cell-based
Settings: for Emax: read-out: JC-1 max %; for EC50: serum deprivation ~18 hours, JC-1 ratio normalized to peak value for 10 μM dimebolin
Experimental: Tissue Culture: SK-N-SH human neuroblastoma cells obtained from American Type Culture Collection (Rockville, Md.) were maintained in the log phase of growth in Minimal Essential Media (MEM), 10% heat inactivated fetal calf serum and 100 units/mL antibiotic-antimycotic (AA). Cells were cultured and maintained in a humidified incubator at 37° C. under 5% CO2 and 95% air. Cells were trypsinized (0.25%) and subcultured every 3 days and used from 15-18 passages. All cell culture supplies were obtained from Invitrogen (Carlsbad, Calif.).
Serum Deprivation/JC-1 Mitochondrial Membrane Potential (MMP) Assay.
SK-N-SH cells were plated 2-3 days in advance at a concentration of 50,000 cells/well onto collagen coated black-walled 96 well plates (Becton-Dickinson, Bedford, Mass.) in a total volume of 200 μL. On day of experimental treatment, the media containing serum was aspirated from each well and rinsed once with MEM/1% AA without serum. The cells then were incubated overnight in 100 μL of MEM/1% AA (no serum) with and without dimebolin or novel chemical entities overnight for ˜18 hours. The following day, JC-1 dye (5,5′,6,6′-tetrachloro-1,1′,3,3′-tetraethylbenzimidazolcarbocyanide) was diluted 1:10 into MEM media according to the JC-1 Mitochondrial Membrane Potential Assay Kit: (Cayman Chemical Company, Ann Arbor, Mich.) and then 10 μL of the JC-1 dye solution was added to each well. The plates were centrifuged for 5 minutes at 400×g at room temperature followed by 40 minute incubation at 37° C. The plates were washed twice with 200 μL of provided Assay Buffer followed an addition of 100 μL of Assay Buffer to each well. The plates were read with an excitation and emission of 560 nm and 595 nM for red fluorescence and with an excitation and emission of […] and 535 nM for green fluorescence to determine the final JC-1 value taking the red to green fluorescence ratio. This assay is based on change in mitochondrial membrane potential (MMP) using this lipophilic cationic dye, JC-1, by monitoring the changes in the ratio of red to green fluorescence as the MMP depolarizes. This change in MMP reflects the health of the cell with healthy, viable cells have a high JC-1 ratio and high MMP whereas apoptotic, unhealthy cells have a low JC-1 ratio or low MMP.
For the ability of compounds to reverse the stress due to serum deprivation and increase the JC-1 ratio, the percent maximal intensity in JC-1 ratio was normalized to that induced by the peak value for 10 μM dimebolin and plotted against the compound concentration to calculate EC50 values and to control for plate-to-plate variability. Concentration-response data were analyzed using GraphPad Prism (San Diego, Calif.); the EC50 values were derived from a single curve fit to the mean data of n=2-3, in duplicates.
All compounds were dissolved in dimethyl sulfoxide at 10 mM stock solutions and tested at a concentration that the dimethyl sulfoxide levels never exceeded 1%.

[1] = Homo sapiens, SK-N-SH, percent maximal JC-1 ratio normalized to peak value for 10 μM dimebolin

| SMILES | Emax [1] | EC50 (Homo sapiens, SK-N-SH) | JC-1 max % (percent maximal JC-1 ratio normalized to peak value for 10 μM dimebolin) | EC50 |
| --- | --- | --- | --- | --- |
| C(=C\c1cccc2c3c([nH]c12)C1CCN(CC1)C3)/c1cncnc1 (single isomer, unassigned) [Example 29, 7-[(E)-2-(pyrimidin-5-yl)vinyl]-3,4,5,6-tetrahydro-1H-2,5-ethanoazepino[4,3-b]indole] | 54% | 5.33 µM |  |  |
| C(=C/c1cccc2c3c([nH]c12)C1CCN(CC1)C3)/c1cncnc1 (single isomer, unassigned) [Example 30, 7-[(Z)-2-(pyrimidin-5-yl)vinyl]-3,4,5,6-tetrahydro-1H-2,5-ethanoazepino[4,3-b]indole] | 29% | > 30 µM |  |  |
| Cc1ccc(CCc2cccc3c4c([nH]c23)C2CCN(CC2)C4)cn1 [Example 2, 7-[2-(6-methylpyridin-3-yl)ethyl]-3,4,5,6-tetrahydro-1H-2,5-ethanoazepino[4,3-b]indole] | 170% | 5.22 µM |  |  |
| Clc1ccc(/C=C/c2cccc3c4c([nH]c23)C2CCN(CC2)C4)cc1 [Example 4, 7-[(E)-2-(4-chlorophenyl)vinyl]-3,4,5,6-tetrahydro-1H-2,5-ethanoazepino[4,3-b]indole] | 123% | 4.09 µM |  |  |
| C(=C\c1cccc2c3c([nH]c12)C1CCN(CC1)C3)/CCCc1ccccc1 [Example 5, 7-[(1E)-5-phenylpent-1-enyl]-3,4,5,6-tetrahydro-1H-2,5-ethanoazepino[4,3-b]indole] | 58% | 5.27 µM |  |  |
| C(=C\c1cccc2c3c([nH]c12)C1CCN(CC1)C3)/c1ccsc1 [Example 6, 7-[(E)-2-thien-3-ylvinyl]-3,4,5,6-tetrahydro-1H-2,5-ethanoazepino[4,3-b]indole] | 67% | 6.62 µM |  |  |
| c1ccc(CCCCCc2cccc3c4c([nH]c23)C2CCN(CC2)C4)cc1 [Example 7, 7-(5-phenylpentyl)-3,4,5,6-tetrahydro-1H-2,5-ethanoazepino[4,3-b]indole] | 62% | 1.43 µM |  |  |
| Cc1ccc(CCc2ccc3[nH]c4c(c3c2)CN2CCC4CC2)cn1 [Example 9, 9-[2-(6-methylpyridin-3-yl)ethyl]-3,4,5,6-tetrahydro-1H-2,5-ethanoazepino[4,3-b]indole] | 110% | 3.94 µM |  |  |
| Fc1ccc(/C=C/c2cccc3c4c([nH]c23)C2CCN(CC2)C4)cc1 [Example 10, 7-[(E)-2-(4-fluorophenyl)vinyl]-3,4,5,6-tetrahydro-1H-2,5-ethanoazepino[4,3-b]indole] | 84% | 4.74 µM |  |  |
| C(=C\c1cccc2c3c([nH]c12)C1CCN(CC1)C3)/c1ccncc1 [Example 11, 7-[(E)-2-pyridin-4-ylvinyl]-3,4,5,6-tetrahydro-1H-2,5-ethanoazepino[4,3-b]indole] | 171% | 6.73 µM |  |  |
| C(=C\c1cccc2c3c([nH]c12)C1CCN(CC1)C3)/c1ccccn1 [Example 12, 7-[(E)-2-pyridin-2-ylvinyl]-3,4,5,6-tetrahydro-1H-2,5-ethanoazepino[4,3-b]indole] | 192% | 3.56 µM |  |  |
| C(#Cc1cccc2c3c([nH]c12)C1CCN(CC1)C3)c1cccnc1 [Example 13, 7-(pyridin-3-ylethynyl)-3,4,5,6-tetrahydro-1H-2,5-ethanoazepino[4,3-b]indole] | 142% | 5.17 µM |  |  |
| Fc1ccc(/C=C/c2cccc3c4c([nH]c23)C2CCN(CC2)C4)c(F)c1 [Example 14, 7-[(E)-2-(2,4-difluorophenyl)vinyl]-3,4,5,6-tetrahydro-1H-2,5-ethanoazepino[4,3-b]indole] | 39% | > 30 µM |  |  |
| Fc1cccc(/C=C/c2cccc3c4c([nH]c23)C2CCN(CC2)C4)c1 [Example 15, 7-[(E)-2-(3-fluorophenyl)vinyl]-3,4,5,6-tetrahydro-1H-2,5-ethanoazepino[4,3-b]indole] | 44% | > 30 µM |  |  |
| Fc1cccc(CCc2cccc3c4c([nH]c23)C2CCN(CC2)C4)c1 [Example 16, 7-[2-(3-fluorophenyl)ethyl]-3,4,5,6-tetrahydro-1H-2,5-ethanoazepino[4,3-b]indole] | 49% | > 30 µM |  |  |
| Cc1ccc(/C=C/c2cccc3[nH]c4c(c23)CN2CCC4CC2)cn1 [Example 18, 10-[(E)-2-(6-methylpyridin-3-yl)vinyl]-3,4,5,6-tetrahydro-1H-2,5-ethanoazepino[4,3-b]indole] | 173% | 3.1 µM |  |  |
| C(=C\c1cccc2c3c([nH]c12)C1CCN(CC1)C3)/c1ccccc1 [Example 19, 7-[(E)-2-phenylvinyl]-3,4,5,6-tetrahydro-1H-2,5-ethanoazepino[4,3-b]indole] | 64% | 3.52 µM |  |  |
| FC(F)(F)Oc1ccc(C#Cc2cccc3c4c([nH]c23)C2CCN(CC2)C4)cc1 [Example 20, 7-{[4-(trifluoromethoxy)phenyl]ethynyl}-3,4,5,6-tetrahydro-1H-2,5-ethanoazepino[4,3-b]indole] | 47% | > 30 µM |  |  |
| C(#Cc1cccc2c3c([nH]c12)C1CCN(CC1)C3)c1ccncc1 [Example 21, 7-(pyridin-4-ylethynyl)-3,4,5,6-tetrahydro-1H-2,5-ethanoazepino[4,3-b]indole] | 104% | 3.69 µM |  |  |
| Cc1ccc(C#Cc2ccc3c4c([nH]c3c2)C2CCN(CC2)C4)cn1 [Example 22, 8-[(6-methylpyridin-3-yl)ethynyl]-3,4,5,6-tetrahydro-1H-2,5-ethanoazepino[4,3-b]indole] | 185% | 8.66 µM |  |  |
| Cc1ccc(C#Cc2cccc3[nH]c4c(c23)CN2CCC4CC2)cn1 [Example 23, 10-[(6-methylpyridin-3-yl)ethynyl]-3,4,5,6-tetrahydro-1H-2,5-ethanoazepino[4,3-b]indole] | 140% | 7.27 µM |  |  |
| Cc1ccc(C#Cc2cc(F)cc3c4c([nH]c23)C2CCN(CC2)C4)cn1 [Example 24, 9-fluoro-7-[(6-methylpyridin-3-yl)ethynyl]-3,4,5,6-tetrahydro-1H-2,5-ethanoazepino[4,3-b]indole] | 156% | 5.38 µM |  |  |
| Cc1ccc(/C=C/c2cc(F)cc3c4c([nH]c23)C2CCN(CC2)C4)cn1 [Example 25, 9-fluoro-7-[(E)-2-(6-methylpyridin-3-yl)vinyl]-3,4,5,6-tetrahydro-1H-2,5-ethanoazepino[4,3-b]indole] | 127% | 3.42 µM |  |  |
| c1ccc(COc2cccc3c4c([nH]c23)C2CCN(CC2)C4)cc1 [Example 26, 7-(benzyloxy)-3,4,5,6-tetrahydro-1H-2,5-ethanoazepino[4,3-b]indole] | 494% | 9.81 µM |  |  |
| Cc1ccc(/C=C/c2cccc3c4c([nH]c23)C2CC[N+]([O-])(CC2)C4)cn1 [Example 28, 7-[(E)-2-(6-methylpyridin-3-yl)yinyl]-1,2,3,4,5,6-hexahydro-2,5-ethanoazepino[4,3-b]indole 2-oxide] |  |  | 50% | > 30 µM |
| Cc1ccc(/C=C\c2cccc3c4c([nH]c23)C2CCN(CC2)C4)cn1 [Example 31, 7-[(Z)-2-(6-methylpyridin-3-yl)vinyl]-3,4,5,6-tetrahydro-1H-2,5-ethanoazepino[4,3-b]indole] | 120% | 7.75 µM |  |  |
| Cc1ccc(/C=C/c2cccc3c4c([nH]c23)CN2CCC4CC2)cn1 [Example 32, 9-[(E)-2-(6-methylpyridin-3-yl)vinyl]-3,4,5,10-tetrahydro-1H-2,5-ethanoazepino[3,4-b]indole] | 199% | 3.64 µM |  |  |
